Literature values, collected in article PMC12053642, “Oral PRI-002 treatment in patients with MCI or mild AD: a randomized, double-blind phase 1b trial” (Nature Communications, 2025).
Square brackets hold non-standard residues; d marks the D form. Peptide text beside a SMILES is read from it.

Settings: Day 1 of the MAD study; dose 320 mg/person; cited from earlier work
Protocol: On the two test days (Day 1 and Day 28), plasma levels were highly variable (Fig. 1). Coefficient of variations (CVs) were clearly above 100% at 0.5 h after the first treatment and at the pre-treatment time of Day 28 (Supplementary Table 8). […] The high variability is due to a non-Gaussian data distribution. Mean maximum plasma levels on Day 1 (Day 28) of 4.46 ± 3.71 ng/ml (12.6 ...

CC(C)C[C@@H](NC(=O)[C@H](NC(=O)[C@H]1CCCN1)[C@H](C)O)C(=O)N[C@H](Cc1c[nH]cn1)C(=O)N[C@@H](C(=O)N[C@H](Cc1c[nH]cn1)C(=O)N[C@H](CC(N)=O)C(=O)N[C@H](CCCNC(=N)N)C(=O)N[C@H](CCCNC(=N)N)C(=O)N[C@H](CCCNC(=N)N)C(=O)N[C@H](CCCNC(=N)N)C(=O)N[C@H](CCCNC(=N)N)C(N)=O)[C@H](C)O [PRI-002] (H-[dP][dT][dL][dH][dT][dH][dN][dR][dR][dR][dR][dR]-NH2; N-terminus and C-terminus assumed)
AUC0-4 hour: 0.0337 µg·h/mL | partial AUC up to 4 h as percentage of total AUC: 44.2%
